Data from patent publication US7851474B2, “Dipiperazinyl ketones and related analogues” (Neurogen Corporation, priority 2005, dated 2010).

biological target: T1, chimeric human H3 receptor (Homo sapiens, UniProt Q9Y5N1, E19D); assay: Chimeric human H3 receptor screening GTP binding assay (inhibition of histamine-stimulated GTP-gamma35S binding, Example 8); format: biochemical; conditions: 1 h; assay described in Example 8; symbol + in column headed Ki of Table II; read-out: percent inhibition of agonist-induced GTP-gammaS binding to H3
T1 construct: made in house; host or cells: Sf9 insect cells (baculovirus infection); P2 membrane preparation
T1 sequence (Q9Y5N1 with tags, fused parts or gaps E19D): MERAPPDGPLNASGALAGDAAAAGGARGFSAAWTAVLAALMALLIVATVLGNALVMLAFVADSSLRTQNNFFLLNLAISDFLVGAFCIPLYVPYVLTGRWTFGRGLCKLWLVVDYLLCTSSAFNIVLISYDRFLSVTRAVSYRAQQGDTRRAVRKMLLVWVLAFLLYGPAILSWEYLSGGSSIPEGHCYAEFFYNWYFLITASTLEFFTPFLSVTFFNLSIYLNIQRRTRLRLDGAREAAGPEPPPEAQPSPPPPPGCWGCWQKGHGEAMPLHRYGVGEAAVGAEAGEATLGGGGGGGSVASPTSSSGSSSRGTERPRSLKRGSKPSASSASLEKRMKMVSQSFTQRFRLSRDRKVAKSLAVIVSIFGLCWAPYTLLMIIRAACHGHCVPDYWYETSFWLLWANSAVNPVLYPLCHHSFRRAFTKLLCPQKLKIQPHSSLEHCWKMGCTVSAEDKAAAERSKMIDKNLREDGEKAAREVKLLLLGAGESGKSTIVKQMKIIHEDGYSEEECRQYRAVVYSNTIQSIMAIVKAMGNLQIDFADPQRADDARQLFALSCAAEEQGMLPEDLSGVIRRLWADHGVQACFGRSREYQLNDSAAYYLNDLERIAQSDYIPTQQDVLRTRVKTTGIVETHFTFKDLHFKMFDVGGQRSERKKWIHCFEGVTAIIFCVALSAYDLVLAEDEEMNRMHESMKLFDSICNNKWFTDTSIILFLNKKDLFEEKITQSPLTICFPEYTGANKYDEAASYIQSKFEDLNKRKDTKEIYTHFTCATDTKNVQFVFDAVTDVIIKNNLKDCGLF
Description: This Example illustrates a representative screening assay for evaluating inhibition of histamine-stimulated GTP-gamma^35S binding. Such GTP binding activity can be used to identify H3 antagonists and inverse agonists. A compound analyzed in this assay is referred to herein as a “test compound,” and the initial identification of antagonists and inverse agonists is performed using a test compound concentration of 4 μM.
Four independent baculoviral stocks (one directing the expression of the chimeric human H3 receptor and three directing the expression of each of the three subunits of a heterotrimeric G-protein) are used to infect a culture of Sf9 cells as described above. P2 membranes are prepared as described above, and are resuspended by Dounce homogenization (tight pestle) in GTP binding assay buffer (50 mM Tris pH 7.4, 120 mM NaCl, 5 mM MgCl2, 2 mM EGTA, 1 mg/ml BSA, 0.2 mg/ml bacitracin, 0.02 mg/ml aprotinin, 0.01 mg/ml saponin, 10 μM GDP) and added to assay tubes at a concentration of 35 μg protein/reaction tube. Non-radiolabeled test compounds are added to separate reactions at a concentration of 4 μM along with 1 μM histamine (agonist). Reactions are initiated by the addition of 125 pM GTP-gamma^35S with a final assay volume of 0.20 ml.
After a 60-min incubation at room temperature, reactions are terminated by vacuum filtration over GF/C filters (pre-soaked in 50 mM Tris pH 7.4, 120 mM NaCl plus 0.1% BSA) followed by washing with ice-cold buffer (50 mM Tris pH 7.4, 120 mM NaCl). The amount of receptor-bound (and thereby membrane-bound) GTP-gamma^35S is determined by measuring the bound radioactivity, preferably by liquid scintillation spectrometry of the washed filters. Non-specific binding is determined using 10 uM GTP-gammaS and typically represents less than 5 percent of total binding. After subtraction of non-specific binding, data is expressed as percent inhibition of 1 μM histamine signal.
Neutral antagonists are those test compounds that reduce the histamine-stimulated GTP binding activity towards, but not below, baseline levels. In contrast, in the absence of added histamine, inverse agonists reduce the GTP binding activity of the receptor-containing membranes below baseline. Any test compound that elevates GTP binding activity above baseline in the absence of added histamine in this assay is defined as having agonist activity.

SMILES | inhibition at 4 µM [%]
O=C(/C=C/c1c(F)cccc1Cl)N1CCN(CC(=O)N2CCN(C3CCC3)CC2)CC1 [Compound 388, 1-[(2E)-3-(2-chloro-6-fluorophenyl)prop-2-enoyl]-4-[2-(4-cyclobutylpiperazin-1-yl)-2-oxoethyl]piperazine] | > 90
CCOc1ccc(Br)cc1/C=C/C(=O)N1CCN(CC(=O)N2CCN(C3CCC3)CC2)CC1 [Compound 392, 1-[(2E)-3-(5-bromo-2-ethoxyphenyl)prop-2-enoyl]-4-[2-(4-cyclobutylpiperazin-1-yl)-2-oxoethyl]piperazine] | > 90
O=C(CN1CCN(C(=O)c2sccc2Br)CC1)N1CCN(C2CCC2)CC1 [Compound 395, 1-[(3-bromo-2-thienyl)carbonyl]-4-[2-(4-cyclobutylpiperazin-1-yl)-2-oxoethyl]piperazine] | > 90
O=C(Cc1cccc(Br)c1)N1CCN(CC(=O)N2CCN(C3CCC3)CC2)CC1 [Compound 396, 1-[(3-bromophenyl)acetyl]-4-[2-(4-cyclobutylpiperazin-1-yl)-2-oxoethyl]piperazine] | > 90
O=C(CN1CCN(C(=O)c2sccc2Cl)CC1)N1CCN(C2CCC2)CC1 [Compound 398, 1-[(3-chloro-2-thienyl)carbonyl]-4-[2-(4-cyclobutylpiperazin-1-yl)-2-oxoethyl]piperazine] | > 90
O=C(COc1cccc(Cl)c1)N1CCN(CC(=O)N2CCN(C3CCC3)CC2)CC1 [Compound 399, 1-[(3-chlorophenoxy)acetyl]-4-[2-(4-cyclobutylpiperazin-1-yl)-2-oxoethyl]piperazine] | > 90
O=C(Cc1cccc(Cl)c1)N1CCN(CC(=O)N2CCN(C3CCC3)CC2)CC1 [Compound 400, 1-[(3-chlorophenyl)acetyl]-4-[2-(4-cyclobutylpiperazin-1-yl)-2-oxoethyl]piperazine] | > 90
O=C(Cc1ccc(Br)cc1)N1CCN(CC(=O)N2CCN(C3CCC3)CC2)CC1 [Compound 403, 1-[(4-bromophenyl)acetyl]-4-[2-(4-cyclobutylpiperazin-1-yl)-2-oxoethyl]piperazine] | > 90
COc1cc(Cl)ccc1OCC(=O)N1CCN(CC(=O)N2CCN(C3CCC3)CC2)CC1 [Compound 404, 1-[(4-chloro-2-methoxyphenoxy)acetyl]-4-[2-(4-cyclobutylpiperazin-1-yl)-2-oxoethyl]piperazine] | > 90
Cc1cc(Cl)ccc1OCC(=O)N1CCN(CC(=O)N2CCN(C3CCC3)CC2)CC1 [Compound 405, 1-[(4-chloro-2-methylphenoxy)acetyl]-4-[2-(4-cyclobutylpiperazin-1-yl)-2-oxoethyl]piperazine] | > 90
O=C(COc1ccc(Cl)cc1)N1CCN(CC(=O)N2CCN(C3CCC3)CC2)CC1 [Compound 406, 1-[(4-chlorophenoxy)acetyl]-4-[2-(4-cyclobutylpiperazin-1-yl)-2-oxoethyl]piperazine] | > 90
O=C(Cc1ccc(Cl)cc1)N1CCN(CC(=O)N2CCN(C3CCC3)CC2)CC1 [Compound 407, 1-[(4-chlorophenyl)acetyl]-4-[2-(4-cyclobutylpiperazin-1-yl)-2-oxoethyl]piperazine] | > 90
CC(C)(C)c1ccc(OCC(=O)N2CCN(CC(=O)N3CCN(C4CCC4)CC3)CC2)cc1 [Compound 408, 1-[(4-tert-butylphenoxy)acetyl]-4-[2-(4-cyclobutylpiperazin-1-yl)-2-oxoethyl]piperazine] | > 90
CCCCc1ccc(C(=O)N2CCN(CC(=O)N3CCN(C4CCC4)CC3)CC2)nc1 [Compound 412, 1-[(5-butylpyridin-2-yl)carbonyl]-4-[2-(4-cyclobutylpiperazin-1-yl)-2-oxoethyl]piperazine] | > 90

Further lines, results first:

inhibition at 4 µM [%] | SMILES
> 90 | COc1cc(Br)c(/C=C/C(=O)N2CCN(CC(=O)N3CCN(C4CCC4)CC3)CC2)cc1OC [Compound 386, 1-[(2E)-3-(2-bromo-4,5-dimethoxyphenyl)prop-2-enoyl]-4-[2-(4-cyclobutylpiperazin-1-yl)-2-oxoethyl]piperazine]
> 90 | COc1ccc(/C=C/C(=O)N2CCN(CC(=O)N3CCN(C4CCC4)CC3)CC2)c(Cl)c1OC [Compound 387, 1-[(2E)-3-(2-chloro-3,4-dimethoxyphenyl)prop-2-enoyl]-4-[2-(4-cyclobutylpiperazin-1-yl)-2-oxoethyl]piperazine]
> 90 | O=C(/C=C/c1ccccc1Cl)N1CCN(CC(=O)N2CCN(C3CCC3)CC2)CC1 [Compound 389, 1-[(2E)-3-(2-chlorophenyl)prop-2-enoyl]-4-[2-(4-cyclobutylpiperazin-1-yl)-2-oxoethyl]piperazine]
> 90 | O=C(/C=C/c1cccc(Cl)c1)N1CCN(CC(=O)N2CCN(C3CCC3)CC2)CC1 [Compound 390, 1-[(2E)-3-(3-chlorophenyl)prop-2-enoyl]-4-[2-(4-cyclobutylpiperazin-1-yl)-2-oxoethyl]piperazine]
> 90 | O=C(/C=C/c1ccc(Cl)cc1)N1CCN(CC(=O)N2CCN(C3CCC3)CC2)CC1 [Compound 391, 1-[(2E)-3-(4-chlorophenyl)prop-2-enoyl]-4-[2-(4-cyclobutylpiperazin-1-yl)-2-oxoethyl]piperazine]
> 90 | COc1ccc(Br)cc1/C=C/C(=O)N1CCN(CC(=O)N2CCN(C3CCC3)CC2)CC1 [Compound 393, 1-[(2E)-3-(5-bromo-2-methoxyphenyl)prop-2-enoyl]-4-[2-(4-cyclobutylpiperazin-1-yl)-2-oxoethyl]piperazine]
> 90 | O=C(/C=C/c1ccc(-c2ccccc2)cc1)N1CCN(CC(=O)N2CCN(C3CCC3)CC2)CC1 [Compound 394, 1-[(2E)-3-biphenyl-4-ylprop-2-enoyl]-4-[2-(4-cyclobutylpiperazin-1-yl)-2-oxoethyl]piperazine]
> 90 | O=C(CN1CCN(C(=O)c2sc3ccccc3c2Cl)CC1)N1CCN(C2CCC2)CC1 [Compound 397, 1-[(3-chloro-1-benzothien-2-yl)carbonyl]-4-[2-(4-cyclobutylpiperazin-1-yl)-2-oxoethyl]piperazine]
> 90 | Cn1nc(C(C)(C)C)cc1C(=O)N1CCN(CC(=O)N2CCN(C3CCC3)CC2)CC1 [Compound 401, 1-[(3-tert-butyl-1-methyl-1H-pyrazol-5-yl)carbonyl]-4-[2-(4-cyclobutylpiperazin-1-yl)-2-oxoethyl]piperazine]
> 90 | CCn1nc(C)c(Br)c1C(=O)N1CCN(CC(=O)N2CCN(C3CCC3)CC2)CC1 [Compound 402, 1-[(4-bromo-1-ethyl-3-methyl-1H-pyrazol-5-yl)carbonyl]-4-[2-(4-cyclobutylpiperazin-1-yl)-2-oxoethyl]piperazine]
> 90 | O=C(CN1CCN(C(=O)c2ccc(Br)s2)CC1)N1CCN(C2CCC2)CC1 [Compound 410, 1-[(5-bromo-2-thienyl)carbonyl]-4-[2-(4-cyclobutylpiperazin-1-yl)-2-oxoethyl]piperazine]
> 90 | O=C(CN1CCN(C(=O)c2cncc(Br)c2)CC1)N1CCN(C2CCC2)CC1 [Compound 411, 1-[(5-bromopyridin-3-yl)carbonyl]-4-[2-(4-cyclobutylpiperazin-1-yl)-2-oxoethyl]piperazine]
